Measurements as given in patent publication US11306115B2, “Aminoglycoside derivatives and uses thereof in treating genetic disorders” (priority 2015, dated 2022).
“Also recorded” adds a separate entry of the source.

Columns and labels:
[1] = system: Rett syndrome R168X, R270X and R294X nonsense mutations; assay: Readthrough activity in cell-free assay, Rett syndrome nonsense mutations suppression; assay type: biochemical, rabbit; settings: 5 μM, FIGS. 8A-C; for firefly/renilla expression ratio compared with the control, wild type cell extracts: WT
Procedure: (§1) The plasmids were transcribed in vitro and translated using rabbit reticulocytes (TNT mix) and then tested for the expression levels of the firefly and renilla luciferases. WT plasmids expressed both firefly and renilla luciferases while mutant plasmids expressed only the renilla luciferase due to the stop codon found in the inserted sequence. The readthrough assays were conducted for the tested compounds and the controls by adding the compounds to the in vitro transcription/translation reaction mixture. In case the compounds exerted suppression of the premature nonsense/stop codon mutation, the firefly luciferase was expressed and a fold-change in its expression was observed.
FIGS. 8A-C present the results of Rett syndrome R168X (FIG. 8A), R270X (FIG. 8B) and R294X (FIG. 8C) nonsense mutations suppression cell-free assays conducted for six exemplary compounds according to embodiments of the present invention, NB144, NB145, NB146, NB150, NB151 and NB152, at a concentration of 5 μM. As shown therein, when compared with the control (non-treated cell extracts), the wild type cell extracts are unaffected (approx. 100%); however, in all three Rett syndrome mutation models there is a significant impact of the different treatments on the readthrough activity (>>>100%).

[2] = system: cystic fibrosis G542X nonsense mutation; assay: Readthrough activity in cell-free assay, cystic fibrosis G542X nonsense mutation suppression dose-response; assay type: biochemical, rabbit; settings: concentration range 0-50 μM; for mutation suppression activity (firefly expression and firefly/renilla expression ratio, G542X mutant sequence): FIGS. 4-7; for protein synthesis inhibitory effect (expression levels up or downstream of the WT sequence): FIGS. 4A, 4C, 4E, 6
Procedure: as §1
Readthrough activity of Cystic Fibrosis (CF) mutation G542X was tested using the compounds presented in Table 1, and the mutation suppression was calculated based on firefly/renilla expression ratio values, and normalized with respect to the expression level of the WT and the control sample (no tested compound).

[3] = system: Rett syndrome causing premature stop codon mutations R168X, R270X and R294X; assay type: cell-based, human; settings: offered as explanation of limited readthrough level, 0.3 and 1 mM

| Structure (SMILES) | firefly/renilla expression ratio compared with the control, wild type cell extracts [1] | mutation suppression activity (firefly expression and firefly/renilla expression ratio, G542X mutant sequence) [2] | cytotoxicity [3] | readthrough activity, comparison in words [1] | protein synthesis inhibitory effect (expression levels up or downstream of the WT sequence) [2] |
| --- | --- | --- | --- | --- | --- |
| C[C@@H](O)C1O[C@H](O[C@@H]2C(N)CC(NCc3ccccc3)[C@@H](O)C2O)C(N)C(O)[C@@H]1O (stereo in doubt) [NB145] | approx. 100% | notable dose-dependent readthrough activity |  |  |  |
| CN[C@@H]1[C@@H](O)[C@@H](O[C@@H]2[C@@H](O)[C@H](O[C@H]3O[C@H]([C@@H](C)O)[C@@H](O)[C@H](O)[C@H]3N)[C@@H](N)C[C@H]2N)OC[C@]1(C)O [Compound G418] |  |  | significant cytotoxicity |  |  |
| C[C@@H](O)C1O[C@H](O[C@@H]2C(N)C[C@@H](N)C(O)C2O[C@@H]2O[C@H](CNC(=N)N)C(O)C2O)C(N)C(O)[C@@H]1O (stereo in doubt) [NB151] | approx. 100% | notable dose-dependent readthrough activity |  |  |  |
| CCCNC1CC(N)[C@@H](O[C@H]2OC([C@@H](C)O)[C@@H](O)C(O)C2N)C(O)[C@@H]1O (stereo in doubt) [NB146] | approx. 100% | clearly dose-dependent; also recorded: notable dose-dependent readthrough activity |  | better activity compared to NB144 and NB145 | more protein synthesis inhibitory effect |
| CC(C)CNC1CC(N)[C@@H](O[C@H]2OC([C@@H](C)O)[C@@H](O)C(O)C2N)C(O)[C@@H]1O (stereo in doubt) [NB144] | approx. 100% | notable dose-dependent readthrough activity |  |  |  |
| C[C@@H](O)C1O[C@H](O[C@@H]2C(N)CC(NC(=N)N)[C@@H](O)C2O)C(N)[C@H](O)[C@@H]1O (stereo in doubt) [NB150] | approx. 100% | notable dose-dependent readthrough activity |  |  |  |
| C[C@@H](O)C1O[C@H](O[C@@H]2C(N)C[C@@H](NC(=O)C(O)CCN)C(O)C2O[C@@H]2O[C@H](CNC(=N)N)C(O)C2O)C(N)C(O)[C@@H]1O (stereo in doubt) [NB152] | approx. 100% | notable dose-dependent readthrough activity |  | higher activity compared to NB150 and NB151 | protein synthesis inhibition |
